Source: US6228836A, “Permucous preparation” (Mitsubishi-Tokyo Pharmaceuticals, Inc., priority 1997, dated 2001)

Parameters: species or system rats
Conditions: rat, in vivo
Procedure: Eight-week-old female rats were used, with five per group. The rats were administered 100 μL/kg of the test sample into the nasal cavities once a day, for 7 continuous days. On the 8th day the nasal cavities were extracted, and after dividing them into 3 parts from the nasal cavity opening to the deep end of the nasal cavity, they were fixed with formalin to prepare specimens. After 10-14 days of fixing, a histopathological examination was made of the state of the mucosa, exudation and any bleeding.
Mild irritation was judged when abnormalities were found in the nasal mucosa at sections near the nasal cavity opening, and moderate to severe irritation was judged when the sections where abnormalities were found were further to the deep end. Moderate or greater irritation was also judged when degeneration, ablation, exudation or bleeding was found on the nasal mucosa epithelium at sections near the nasal cavity opening.
As controls there were used physiological saline and commercially available desmopressin (Kyowa Hakko Kogyo, KK.)

Row | Compound | Nasal mucosa irritation, histopathological finding / judgement (in words) | Nasal cavity mucosa irritation: Mild | Nasal cavity mucosa irritation: Moderate | Nasal cavity mucosa irritation: Normal | Nasal cavity mucosa irritation: Severe
1 | C[C@H](CCC(=O)O)[C@H]1CC[C@H]2[C@@H]3CC[C@@H]4C[C@H](O)CC[C@]4(C)[C@H]3C[C@H](O)[C@]12C [sodium deoxycholate] | irritating effect on the nasal cavity mucosa |  |  |  | 
2 | NC(=O)CC[C@@H]1NC(=O)[C@H](Cc2ccccc2)NC(=O)[C@H](Cc2ccc(O)cc2)NC(=O)CCSSC[C@@H](C(=O)N2CCC[C@H]2C(=O)N[C@H](CCCN=C(N)N)C(=O)NCC(N)=O)NC(=O)[C@H](CC(N)=O)NC1=O [Desmopressin, desmopressin] | No irritation | 0 | 0 | 5 | 0
